Results taken from the supplement of paper PMC10307832.

Tests used:
Assay in all cases: relative viability (nuclei count vs DMSO), 5 days (fraction); higher = more cells survive
VE-821 = compound: CS(=O)(=O)c1ccc(-c2cnc(N)c(C(=O)Nc3ccccc3)n2)cc1 [VE-821]
In short: (§1)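 Lung cancer cell lines were seeded into 1536-well plates, kept overnight at 37 °C and pinned with five library-drug doses (not always all listed) spaced by √10. After 5 days, nuclei were Hoechst-stained, imaged at 4× and counted with MetaXpress. Viability is treated-well nuclei over vehicle-well nuclei, taken as a median across plates. Plates needed control CV below 25% and at least one doubling.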

Ruxolitinib = compound: N#CC[C@H](C1CCCC1)n1cc(-c2ncnc3[nH]ccc23)cn1 [Ruxolitinib]
In short: as §1

Vismodegib = compound: CS(=O)(=O)c1ccc(C(=O)Nc2ccc(Cl)c(-c3ccccn3)c2)c(Cl)c1 [Vismodegib]
In short: as §1

Cell Line	relative viability (VE-821; 0.08 µM)	relative viability (VE-821; 0.253 µM)	relative viability (VE-821; 0.8 µM)	relative viability (VE-821; 2.53 µM)	relative viability (VE-821; 8 µM)	relative viability (Ruxolitinib; 0.08 µM)	relative viability (Ruxolitinib; 0.253 µM)	relative viability (Ruxolitinib; 0.8 µM)	relative viability (Ruxolitinib; 2.53 µM)	relative viability (Ruxolitinib; 8 µM)	relative viability (Vismodegib; 0.08 µM)	relative viability (Vismodegib; 0.253 µM)	relative viability (Vismodegib; 0.8 µM)	relative viability (Vismodegib; 2.53 µM)	relative viability (Vismodegib; 8 µM)
NCI-H520	1.05	0.992	0.723	1.06	0.67	1.07	0.749	1.2	0.934	0.951	0.922	0.885	0.927	0.875	1.11
NCI-H1355	1.05	0.919	0.963	1.04	0.604	1.07	0.962	0.957	0.922	0.918	0.947	0.992	0.904	0.99	0.93
NCI-H1563	1.01	0.985	0.81	0.886	0.762	0.985	0.99	1.02	0.853	0.879	0.944	0.931	0.954	1.04	1.02
NCI-H1651	0.976	0.954	0.922	0.977	0.969	0.948	0.978	0.971	0.939	0.976	0.945	0.976	0.947	0.956	1.02
HCC-44	1	0.962	1.06	1.04	1.04	0.958	0.939	1.04	1.02	0.843	1.01	0.94	0.938	0.934	1.01
NCI-H1437	1.03	0.97	0.988	1.01	0.956	1.09	1.1	1.08	0.946	0.848	0.951	0.967	1.01	0.964	0.999
201T	1.03	0.94	0.937	1.01	0.703	1.05	1.1	1.18	1.19	1.1	0.983	0.942	0.977	0.964	0.968
LCLC-103H	1.07	0.915	0.952	1.21	0.891	1.04	1.01	0.993	1.05	0.956	0.967	1.04	0.92	1.01	1.02
NCI-H1915	1.07	0.949	1.02	1.05	0.755	0.983	1.03	1.07	0.901	0.85	1.02	1.01	0.957	0.983	0.907
NCI-H2085	1.03	0.973	0.843	1.14	0.946	1.03	1.01	1.09	0.901	0.876	0.977	0.995	0.994	0.997	0.937
NCI-H2228	0.938	1.03	0.806	1.27	0.728	0.764	0.964	1.3	0.809	0.737	1.07	1.13	1.04	0.889	0.89
EKVX	1.12	0.997	0.937	1.08	0.855	0.753	0.836	1	0.898	0.742	0.797	0.945	0.944	0.968	0.941
COR-L23	1.12	0.953	1.15	1.11	0.866	1.07	0.995	1.09	0.981	0.785	0.981	0.933	1.03	1.02	1.05
SK-MES-1	1.03	0.955	0.905	0.933	0.809	1.04	0.967	1.02	0.846	0.725	0.964	0.997	1.01	0.986	1.04
A549	1.11	0.939	0.927	0.954	0.738	0.934	0.965	1.11	0.941	0.736	0.964	0.91	0.936	0.915	0.971
NCI-H650	1.04	0.909	1.05	1.1	0.895	–	0.937	1.01	0.854	0.696	0.953	0.895	0.88	0.915	0.815
NCI-H2087	1.16	0.871	0.958	1.32	1.05	1.04	0.957	1.12	0.935	0.941	0.946	0.969	0.941	1.09	0.906
EBC-1	1.07	0.894	0.865	1.05	0.759	0.981	1.04	1.1	0.924	0.822	0.931	0.965	1.12	0.963	1.06
NCI-H1648	1.21	0.787	0.876	0.946	0.674	0.644	1.02	1.11	1.25	1.49	1	0.893	0.766	0.987	0.74
NCI-H1623	1.06	0.987	0.84	1.01	0.809	0.942	0.936	1.14	1.14	1.28	0.943	1.01	1.06	0.978	1.01
NCI-H661	0.986	0.998	0.976	0.997	0.919	0.958	0.963	1.04	1.03	0.92	0.973	0.975	0.997	0.909	1.02
NCI-H596	0.984	0.907	0.972	0.975	1	1.09	0.98	1.12	1.09	1.07	0.986	1.02	0.898	0.932	0.952
IA-LM	1.02	0.874	0.999	1.06	0.808	0.855	1.02	1.08	1.05	0.888	0.883	0.963	0.964	0.85	0.876

Cell Line	relative viability (VE-821; 0.08 µM)	relative viability (VE-821; 0.253 µM)	relative viability (VE-821; 0.8 µM)	relative viability (VE-821; 2.53 µM)	relative viability (VE-821; 8 µM)	relative viability (Ruxolitinib; 0.08 µM)	relative viability (Ruxolitinib; 0.253 µM)	relative viability (Ruxolitinib; 0.8 µM)	relative viability (Ruxolitinib; 2.53 µM)	relative viability (Ruxolitinib; 8 µM)	relative viability (Vismodegib; 0.08 µM)	relative viability (Vismodegib; 0.253 µM)	relative viability (Vismodegib; 0.8 µM)	relative viability (Vismodegib; 2.53 µM)	relative viability (Vismodegib; 8 µM)
LC-2-ad	1.07	0.978	1.05	1.12	0.995	0.779	0.971	1.01	0.842	0.665	1	0.952	0.939	0.929	0.907
Calu-6	1.13	0.97	0.905	0.937	0.607	1.03	1.03	1.12	0.893	0.67	1.03	0.957	1.03	1.01	1.05
NCI-H2126	1.02	0.924	0.966	0.96	0.729	1	1.02	1.09	1.12	0.986	0.994	0.962	0.949	0.968	0.927
NCI-H647	1.11	0.9	0.798	0.987	0.506	0.81	0.962	1.04	0.897	0.836	0.913	0.863	0.978	0.964	1.14
NCI-H322M	0.96	0.912	0.96	0.864	0.371	0.934	0.962	1.04	1.27	1.36	0.912	0.896	0.932	0.868	0.88
NCI-H358	1.05	0.964	0.936	1.08	0.803	0.848	0.921	0.889	0.537	0.63	0.945	0.989	0.973	0.911	0.921
NCI-H2342	1	0.957	0.939	0.998	0.807	0.981	0.827	1.09	1.02	0.964	0.882	1.07	0.984	0.742	0.931
LK-2	1.26	0.911	0.993	1.02	0.881	0.928	0.949	1.13	1.02	1.09	1	0.842	0.861	1.02	0.899
NCI-H1993	0.92	0.844	0.916	0.929	0.692	0.872	0.774	1.04	1	0.771	0.807	0.916	0.859	0.875	0.87
A-427	1.1	0.878	0.992	0.986	0.468	0.982	1.02	1.12	0.902	0.844	1	0.94	0.933	0.988	1.01
NCI-H2347	1.1	0.968	1.01	1.22	1.14	0.949	0.984	1.11	1.01	0.942	0.908	0.995	0.949	0.968	1.04
ChaGo-K-1	1.03	0.882	1	0.967	0.738	1.04	0.928	0.947	0.872	0.735	0.932	1	1.03	0.959	0.97
NCI-H1299	1.02	0.971	0.987	0.997	0.941	1.04	1.01	1.01	0.974	0.866	1.04	0.973	1.02	1.03	1.02
BEN	0.977	1.01	0.849	1.03	0.885	0.992	0.938	1.14	0.965	1.07	1	1.02	0.891	0.926	1.02
NCI-H23	1.03	0.888	0.983	0.818	0.319	1.04	1.01	0.995	0.84	0.772	1.05	0.931	0.886	0.926	0.773
LU99A	0.987	1.01	0.962	0.998	0.464	1.06	0.997	1.08	0.816	0.777	0.989	0.899	0.964	0.819	0.922
ABC-1	1.09	0.882	0.907	1.03	0.749	–	1.01	1.11	0.882	0.782	0.963	0.854	0.96	0.81	0.988
SW 1573	1.1	1.04	1.02	1.06	0.788	1.02	0.929	1.14	0.865	0.85	0.969	0.931	1.05	0.959	0.985
NCI-H2009	1.03	0.961	1	1.06	0.863	1.03	1.01	1.04	0.842	0.657	0.982	0.977	0.976	0.964	0.992
HCC-15	1.09	0.966	1.08	1.21	0.996	1.01	0.984	1.07	0.943	0.811	1.03	0.973	0.977	1.04	0.959
NCI-H1703	1.09	0.793	0.836	0.689	0.444	0.994	0.862	0.978	0.498	0.663	0.998	0.826	1.21	0.824	1.33
EPLC-272H	1.06	0.916	1.08	1.02	0.663	0.966	0.894	0.933	0.906	0.818	0.936	0.942	0.875	0.952	0.863
NCI-H1792	1.26	0.817	0.842	1.37	0.824	0.871	0.761	0.856	0.822	0.561	0.854	0.877	0.941	0.928	0.922
